The text below walks through data of patent US7579336B2, “Pharmaceutical composition comprising temozolomide ester” (Tian Jin Tasly Group Co., Ltd., priority 2004, dated 2009).

Molecules are shown by their SMILES. In brackets after ≈: the same amount, converted by molar mass. Where two headings read alike, the source gives them in different places. Marks after values point to notes of the source that are not given here. A value given as a limit tells only on which side of the number the result lay.

Data set [1] relates to MV3 (human melanoma cells). Briefly: MTT reduction assay, killing tumor cells. To be noted: four days culture with drug. Format: cell-based. The procedure: (§1) The experiment was carried out for methyl TMZ-8-carboxylate, butyl TMZ-8-carboxylate, n-hexyl TMZ-8-carboxylate, and TMZ acid which had been known as an active compound against carcinoma, and used fluorouracil injection (10 ml:0.25 g, purchased from Xudong Pharmaceutical Co. Ltd, the batch number was 000612) as the drug for the positive control. Cancer cell strains used in experiments included HCT-8(human colon carcinoma cells), A549 (human lung carcinoma cells), MCF-7(human breast carcinoma cells), Bel7402 (human liver carcinoma cells), BGC-823(human gastric carcinoma cells) and MV3 (human melanoma cells).
(§2) TMZ acid is white powder; Methyl TMZ-8-carboxylate, butyl TMZ-8-carboxylate and n-hexyl TMZ-8-carboxylate, white scaly crystals, manufactured by the method described in Example 2; Fluorouracil injection (10 ml: 0.25 g): as drug for the positive control, manufactured by Xudong Pharmaceutical Co. Ltd, the batch number 000612; RPMI: produced by GIBCO; Calf serum: manufactured by Sijiqing bio-engineer material Co. Ltd, Hangzhou; and MTT: produced by Bebco.
(§3) All cancer cell strains of HCT-8, A549, MCF-7, Bel-7402, BGC-823, MV3 and B16 was fostered and transferred of culture by Institute of Materia Medica, Chinese Academy of Medical Sciences and Peking Union Medical College.
(§4) Tetrazolium salt [3-(4,5-dimethylthiazol-2-yl)-2,5-diphenyl-tetrazolium bromide, MTT] reduction assay was used. All the well-grown carcinoma cells were collected, prepared intol 1×10^4/ml cell suspension with the RPMI 1640 culture solution containing 10% calf serum, and inoculated in 96-well culture plate, with 100 uL per well (containing 1000 cancer cells). After 24 hours of culture in 5% CO2 thermos incubator at temperature of 37° C. the drugs were added. Blank control group was established and the drug for the positive control was Fluorouracil. The tested drugs were divided into five groups at different concentrations, each concentration was tested for three times parallelly, and placed in 5% CO2 thermos incubator at temperature of 37° C. to culture for four days. The culture solution was discarded and 100 uL of MTT solution (0.4 mg/ml, prepared with RPMI 1640) was added per well to continue to culture for four hours at temperature of 37° C. The supernate was discarded and 150 uL of DMSO was added to dissolve Fomazan granules. After slight agitation, the OD value was measured with BIORAD 550 enzyme labeling instrument at the measuring wavelength of 540 nm and the reference wavelength of 450 nm.
(§5) Data of cell inhibiting rate was then plotted vs. the concentration of drugs to obtain the dose-reaction curve, by which 50% inhibitory concentration IC50 was calculated (see Table 1 and Table 2).
(Tetrazolium assays rely on reduction of a dye to a coloured formazan, in cell work by metabolically active cells.)

Data set [2] relates to Bel7402 (human liver carcinoma cells). Briefly: MTT reduction assay, killing tumor cells. Format: cell-based. The conditions noted are these: Bel-7402 cells, four days culture with drug. The procedure:
as §1, §2, §3, §4, §5

Data set [3] concerns HCT-8(human colon carcinoma cells). Briefly: MTT reduction assay, killing tumor cells. It counts as cell-based. To be noted: HCT-8 cells, four days culture with drug. The procedure:
as §1, §2, §3, §4, §5

The test system of data set [4] is BGC-823(human gastric carcinoma cells). Briefly: MTT reduction assay, killing tumor cells. Format: cell-based. The conditions noted are these: BGC-823 cells, four days culture with drug. The procedure:
as §1, §2, §3, §4, §5

For data set [5], the system named is A549 (human lung carcinoma cells). Briefly: MTT reduction assay, killing tumor cells. Format: cell-based. To be noted: four days culture with drug. The procedure:
as §1, §2, §3, §4, §5

Data set [6] deals with MCF-7(human breast carcinoma cells). Briefly: MTT reduction assay, killing tumor cells. Format: cell-based. The conditions noted are these: MCF-7 cells, four days culture with drug. The procedure: as §1, §2, §3, §4, §5
For data set [7] the following is noted: studies published in WO0057867; cited from earlier work.
The subject of data set [8] is HCT-8, A549, MCF-7, Bel7402, BGC-823 and MV3 cancer cell strains. Briefly: MTT reduction assay, summary over the selected cell strains. It counts as cell-based. The conditions noted are these: Homo sapiens; summary of Table 1 over all selected cell strains; read-out: IC50 ranges for the selected cell strains. The procedure:
as §1, §4, §5

A short description of data set [9]: Stability of TMZ-8-carboxylate derivatives in alcohols (HPLC). Format: physicochemical. The conditions noted are these: room temperature, sampled up to 32 months. The procedure:
n-hexyl TMZ-8-carboxylate was weighed accurately and prepared into 1% of solution by diluting respectively with methanol, ethanol, isopropanol and tert-butyl alcohol. Three sample solutions (20 ml) were taken out in each of above solutions and placed into 50 ml volumetric brown glass bottle, sealed and allowed to stand at room temperature. At time of 1, 4, 8, 12, 16, 20, 24, 28, 32 months after beginning, the solutions were sampled and determined the concentration of n-hexyl TMZ-8-carboxylate by HPLC, to calculate the average value of three parallel solutions and plotted.

Data set [10] is described as follows: Stability of TMZ-8-carboxylate in media of different pH (HPLC). It counts as physicochemical. The conditions noted are these: 1% aqueous solution, sampled up to 32 months. As to the method: The sodium hydroxide and citric acid were accurately weighed and respectively diluted with water to form the solution with the pH value of 7.5, 7.0, 6.5, 6.0 and 5.5. n-Hexyl TMZ-8-carboxylate was accurately weighed, and dissolved into said aqueous solutions with different pH values to form a series of 1% solutions of n-hexyl TMZ-8-carboxylate. Three sample solutions (20 ml) were taken out in each of above solutions and placed into 50 ml volumetric brown glass bottle, sealed and allowed to stand at room temperature. At 1, 4, 8, 12, 16, 20, 24, 28, 32 months after beginning, the solutions were sampled and determined the concentration of n-hexyl TMZ-8-carboxylate by HPLC, to calculate the average of three parallel solutions and plotted.

Data set [11] relates to xenotransplanted human melanoma MV3. Briefly: Topical administration, growth of xenotransplanted human melanoma in MV3 nude mouse. It counts as in vivo, nude mouse of BALB/c-nu. The procedure: Hexyl TMZ-8-carboxylate was selected as the representative to investigate the influence of TMZ-8-carboxylate derivatives on the growth of xenotransplanted human melanoma in MV3 nude mouse.
Hexyl TMZ-8-carboxylate was dissolved in DMSO to obtain 50 mg/ml solution. Human melanoma was xenotransplanted to nude mouse of BALB/c-nu to allow it to grow. Until the tumor expanded to the volume of 100˜300 mm^3, all animals were divided into two groups in accordance with the size of tumor, eight mice per group.
Of these two groups, one was the treatment group in therapeutical treatment by spreading the solution of hexyl TMZ-8-carboxylate; another was the control group where the tumor grows naturally.
In the treatment group, the drug was administered by spreading drug at the position of tumor and surrounding area (2 cm×2 cm) twice a day (once on Saturday and Sunday). Every time, when the solution was dried, administration was repeated for 1 to 2 times. The daily average dose of hexyl TMZ-8-carboxylate administered for a mouse totally was about 20 mg.
The volume of tumor in mouse was measured twice a week, so as to observe and record their growth dynamically. Until the tumor of the control group grew up to a certain volume, all the mice were killed the tumors were stripped off and weighed, growth inhibition rate was calculated. Tumor proliferation (T/C(%)) was calculated using relative volume of tumor in two groups.
Tumor volume (TV) was calculated by the equation as follows: Length×width^2÷2
The relative tumor volume is calculated by the equation as follows: Vt/Vo
Wherein the Vo is the TV measured at the time when the animals were raised in separate cages, and […] is the TV measured each time after.
The t-test was used to compare the statistical difference between two groups in many indexes such as tumor weight, TV and RTV. The relative tumor proliferation rate (T/C(%))was used as the index of bioactivity for anti tumor, which was calculated as follows: […]
The effect was evaluated by statistical analysis. The effect was regarded as invalid when T/C (%) is more than 60, and as effective when T/C (%) is equal to or less than 60 and p<0.05.

The mark [12] stands for this setting: Homo sapiens, MV-3, 96 h, read-out: IC50.
Where [13] appears, read: Homo sapiens, 96 h, read-out: IC50.
[14] abbreviates: Homo sapiens, MCF7, 96 h, read-out: IC50.
Where [15] appears, read: 20 mg/day/mouse spread on tumor, beginning of test, X ± SD.

The IC50 is the concentration at which inhibition is half-maximal. Turning to `O=c1[nH]cc(F)c(=O)[nH]1` [Fluorouracil, reference compound], the IC50 in data set [1] (setting [12]) was found to be 0.427 µg/mL (≈ 3.28 µM).
On to `Cn1nnc2c(C(=O)O)ncn2c1=O` [TMZ acid, reference compound], for which the IC50 in [2] is 16.957 µg/mL (≈ 86.9 µM); in [3], 18.525 µg/mL (≈ 94.9 µM); in [4], greater than 19.5 µg/mL; in data set [5], greater than 19.5 µg/mL; in data set [6], 14.911 µg/mL (≈ 76.4 µM); in [1], 14.625 µg/mL (≈ 74.9 µM).
In the case of `Cn1nnc2c(C(N)=O)ncn2c1=O` [TMZ, Temozolomide], the “Permeation of artificial skin (silicon membrane), rat skin and human skin” value in [7] is “inability to permeate”.
With `CCCCOC(=O)c1ncn2c(=O)n(C)nnc12` [butyl TMZ-8-carboxylate, Butyl 3,4-dihydro-3-methyl-4-oxoimidazo[5,1-d]-1,2,3,5-tetrazine-8-carboxylate], the IC50 in data set [8] was 10 to 30 µg/mL (≈ 39.8 to 119 µM); in data set [2] (setting [13]) it was 24.4 µg/mL (≈ 97 µM); in data set [3] (setting [13]) it was 27.4 µg/mL (≈ 109 µM); in data set [4] (setting [13]), greater than 19.5 µg/mL; in data set [5] (setting [13]) it was 25.3 µg/mL (≈ 101 µM); in data set [6] (setting [14]), 16.6 µg/mL (≈ 65.9 µM). Besides, the IC50 in data set [1] (setting [12]) was determined as 7.57 µg/mL (≈ 30.1 µM).
Consider `COC(=O)c1ncn2c(=O)n(C)nnc12` [methyl TMZ-8-carboxylate, Methyl 3,4-dihydro-3-methyl-4-oxoimidazo[5,1-d]-1,2,3,5-tetrazine-8-carboxylate], for which the IC50 was 10 to 30 µg/mL (≈ 47.8 to 143 µM) in data set [8]; 25.3 µg/mL (≈ 121 µM) in data set [2] (setting [13]); 28.4 µg/mL (≈ 136 µM) in data set [3] (setting [13]); greater than 19.5 µg/mL in [4] (setting [13]); 27 µg/mL (≈ 129 µM) in data set [5] (setting [13]); 17.7 µg/mL (≈ 84.5 µM) in data set [6] (setting [14]). The IC50 in [1] (setting [12]) is 8.83 µg/mL (≈ 42.2 µM).
Take `CCCCCCOC(=O)c1ncn2c(=O)n(C)nnc12` [n-hexyl TMZ-8-carboxylate, n-hexyl 3,4-dihydro-3-methyl-4-oxoimidazo[5,1-d]-1,2,3,5-tetrazine-8-carboxylate]: the Stability in ethanol entry in data set [9] (1% solution in ethanol) is reported as “rapidly decomposes”. The Stability in isopropanol result in data set [9] (1% solution in isopropanol) is reported as “keeps stable”. Also, the Stability in methanol entry in [9] (1% solution in methanol) was “rapidly decomposes”. Also, the “Stability in tert-butyl alcohol” value in data set [9] (1% solution in tert-butyl alcohol) is listed as “keeps stable”. Besides, the IC50 was 10 to 30 µg/mL (≈ 35.8 to 107 µM) in data set [8], greater than 19.5 µg/mL in data set [4] (setting [13]), 20 µg/mL (≈ 71.6 µM) in [6] (setting [14]) and 8.84 µg/mL (≈ 31.6 µM) in data set [1] (setting [12]). Besides, in data set [10] (pH 6.5, 6.0 and 5.5, room temperature), the “Stability in acidic (pH<7.0) medium” value is “keep relatively stable”. The “Stability in neutral (pH7.0) medium” value in [10] (pH7.0, room temperature) is “rapidly decomposes”. The “Stability in weakly alkaline (pH7.5) medium” value in data set [10] (pH7.5, room temperature) is “rapidly decomposes”. For the same molecule, the “Effect on the growth of carcinomas in the mice” value in data set [11] (20 mg daily externally administered per mouse, human melanoma MV3) is reported as “significant inhibiting effects”. In data set [11] (setting [15]), the “Body weight(g) Beginning test” value came to 24.0 ± 1.48 g. For the same molecule, the “Tumor volume (mm^3) Beginning test” value in data set [11] (setting [15]) is on record as 115 ± 36 mm^3. Also, the “Body weight(g) End test” value in data set [11] (20 mg/day/mouse spread on tumor, end of test, X ± SD) turned out to be 25.6 ± 3.64 g. Besides, the “Tumor volume (mm^3) End test” value in [11] (20 mg/day/mouse spread on tumor, end of test, X ± SD, P < 0.05 vs control) is listed as 635 ± 545.1* mm^3. Besides, in [11] (20 mg/day/mouse topical, end of test, X ± SD), the “Weight of tumor” value turned out to be 0.45 ± 0.335 g. The “Inhibiting rate (%)” value in data set [11] (growth inhibition rate from tumor weight, 20 mg/day/mouse topical) was 83.2%. Further, the “T/C(%)” value in data set [11] (relative tumor proliferation rate, 20 mg/day/mouse topical, effective if <= 60 and p<0.05) is listed as 33.7%. In addition, in data set [11] (relative tumor volume Vt/Vo, 20 mg/day/mouse topical), the RTV stood at 3.25 ± 1.85.
